# According to PubChem BioAssay (NCI):
#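 Step 1: Grow cells in 96-well plates. Step 2: Expose to compound for 48 hours at 5 concentrations. Step 3: Interpolate endpoints linearly; if unreached, use highest concentration. Here, GI50 denotes the concentration required for 50% inhibition of growth. TGI marks complete inhibition of growth.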
# How the values were obtained:
# Test in all cases: NCI anticancer screen, dose series, 48 h
# A549 NSCLC = tested on: A549 NSCLC
# ACHN renal = tested on: ACHN renal
# HCT-116 colon = tested on: HCT-116 colon
# M14 melanoma = tested on: M14 melanoma
# SF-268 CNS = tested on: SF-268 CNS
# SF-295 CNS = tested on: SF-295 CNS
# SN12C renal = tested on: SN12C renal
# SR leukemia = tested on: SR leukemia
# TK-10 renal = tested on: TK-10 renal
# MCF7 breast = tested on: MCF7 breast
SMILES,TGI (A549 NSCLC),TGI (ACHN renal),TGI (HCT-116 colon),TGI (M14 melanoma),TGI (SF-268 CNS),TGI (SF-295 CNS),TGI (SN12C renal),TGI (SR leukemia),TGI (TK-10 renal),TGI (MCF7 breast),GI50 (A549 NSCLC),GI50 (ACHN renal),GI50 (HCT-116 colon),GI50 (M14 melanoma),GI50 (MCF7 breast),GI50 (SF-268 CNS),GI50 (SF-295 CNS),GI50 (TK-10 renal),GI50 (SN12C renal)
C=C1CC[C@@H]2C(C)(C)CCC[C@@]2(C)[C@@H]1Cc1cc(O)ccc1O,23 µM,11.8 µM,16.8 µM,24.3 µM,12.9 µM,28.2 µM,15.6 µM,12.1 µM,8.77 µM,–,–,–,–,–,–,–,–,–,–
O=C1C(=O)N(c2ccc(Cl)c(Cl)c2)C(=O)C(=O)C1c1nc2ccccc2o1,> 100 µM,> 100 µM,> 100 µM,> 100 µM,> 100 µM,> 100 µM,> 100 µM,86 µM,> 100 µM,–,–,–,–,–,–,–,–,–,–
CC(C)(O)C1OCC(C2CCC3(C)C4=CCC5C(C)(C)C(O)CCC5(C)C4CCC23C)CC1O (stereo not drawn),31.8 µM,28.6 µM,27.6 µM,> 100 µM,30.4 µM,26.8 µM,27.5 µM,–,25.9 µM,23.8 µM,–,–,–,–,–,–,–,–,–
COc1ccc2ccc([Se]c3ccc4ccc(OC)cc4c3)cc2c1,> 100 µM,> 100 µM,> 100 µM,> 100 µM,> 100 µM,> 100 µM,> 100 µM,–,> 100 µM,–,–,–,–,–,–,–,–,–,–
O=S1(=O)C[C@@H](O)[C@H](O)CS1,> 100 µM,> 100 µM,> 100 µM,> 100 µM,> 100 µM,> 100 µM,> 100 µM,> 100 µM,> 100 µM,–,–,–,–,–,–,–,–,–,–
CCOP(=O)(OCC)/C(C#N)=C/c1ccco1,> 100 µM,> 100 µM,> 100 µM,> 100 µM,> 100 µM,> 100 µM,> 100 µM,> 100 µM,> 100 µM,–,–,–,–,–,–,–,–,–,–
Cc1cc(S(=O)(=O)Nc2nnc(-c3ccccc3)c(-c3ccccc3)n2)c(SCc2ccccc2)cc1Cl,> 100 µM,32.6 µM,38.9 µM,42.1 µM,39.9 µM,38.5 µM,–,–,36.1 µM,54.2 µM,27.7 µM,17.6 µM,19.8 µM,20.7 µM,24 µM,19.3 µM,19.5 µM,17.6 µM,–
C[C@H]1CCC/C=C/[C@@H]2C[C@H](O)C[C@H]2[C@H](O)[C@@H](S(=O)CCN(C)C)CC(=O)O1 (stereo partly drawn),> 100 µM,–,1.19 µM,> 59.3 µM,–,> 100 µM,–,–,> 100 µM,–,0.178 µM,0.428 µM,0.279 µM,0.111 µM,0.147 µM,0.0564 µM,0.524 µM,0.468 µM,0.256 µM
CN(c1ccccc1)C(c1ccccc1)C(O)c1ccccc1 (stereo not drawn),35.4 µM,54.4 µM,33.7 µM,30.4 µM,42.1 µM,32 µM,31.3 µM,49.8 µM,57.1 µM,–,–,–,–,–,–,–,–,–,–
COC(=O)c1ccc(N=NN(C)CO)cc1,> 100 µM,> 100 µM,> 100 µM,> 100 µM,–,> 100 µM,> 100 µM,> 100 µM,> 100 µM,–,–,–,–,–,–,–,–,–,–
CC1NOC(=O)C1N=Nc1ccccc1Cl (stereo not drawn),> 100 µM,> 100 µM,> 100 µM,> 100 µM,> 100 µM,> 100 µM,> 100 µM,–,> 100 µM,–,–,–,–,–,–,–,–,–,–
C=C(CN1CCc2ccccc2C1)c1ccc(C(=O)Nc2ccc(N)cc2)cc1,52.5 µM,> 100 µM,> 100 µM,65.6 µM,> 100 µM,59.4 µM,> 100 µM,–,> 100 µM,> 100 µM,18.7 µM,30 µM,11.9 µM,11.8 µM,14.8 µM,23.5 µM,16.5 µM,26.3 µM,30.1 µM
CC(=O)OCC1OC(n2c(=O)n(-c3ccccc3)c(=O)c3ccccc32)C(OC(C)=O)C(OC(C)=O)C1OC(C)=O (stereo not drawn),> 100 µM,> 100 µM,> 100 µM,> 100 µM,> 100 µM,> 100 µM,> 100 µM,–,> 100 µM,–,–,–,–,–,–,–,–,–,–
COC(=O)C1=C(O)C(O)=C(C(=O)OC)C1,> 100 µM,> 100 µM,> 100 µM,> 100 µM,> 100 µM,> 100 µM,> 100 µM,–,> 100 µM,–,–,–,–,–,–,–,–,–,–
COC[n+]1cc2cc(OC)c(OC)cc2c2ccc3cc(OC)c(OC)cc3c21,> 100 µM,> 100 µM,> 100 µM,> 100 µM,> 100 µM,> 100 µM,> 100 µM,–,> 100 µM,–,–,–,–,–,–,–,–,–,–
COC(=O)c1nc(NC#N)[nH]c(=O)c1C,> 100 µM,> 100 µM,> 100 µM,> 100 µM,> 100 µM,> 100 µM,> 100 µM,–,> 100 µM,–,–,–,–,–,–,–,–,–,–
COc1ccc(/C=C2/C[N+](C)(C)C/C(=C/c3ccc(OC)cc3)C2=O)cc1,> 100 µM,> 100 µM,> 100 µM,> 100 µM,> 94.4 µM,> 100 µM,> 100 µM,–,> 100 µM,–,–,–,–,–,–,–,–,–,–
[N-]=[N+]=NC1C(Br)C(=O)NC(=O)N1[C@H]1C[C@H](O)[C@@H](CO)O1 (stereo partly drawn),> 100 µM,> 100 µM,–,> 100 µM,> 100 µM,> 100 µM,> 100 µM,–,> 100 µM,–,–,–,–,–,–,–,–,–,–
O=C([CH-]C(=O)c1ccccc1)c1ccccc1.O=C([CH-]C(=O)c1ccccc1)c1ccccc1.[Nd+3].[OH-].[OH3+],51.5 µM,30.1 µM,19 µM,32.6 µM,34.9 µM,22.8 µM,70.7 µM,–,> 100 µM,–,17.2 µM,10.1 µM,5.26 µM,13.7 µM,–,6.51 µM,3.95 µM,26.4 µM,12.6 µM
C/C=C(\C)C(=O)O[C@H]1C=CC(=O)O[C@H]1CNC(=O)[C@H](C)O,> 100 µM,29.9 µM,26 µM,41 µM,35.7 µM,> 100 µM,40.3 µM,–,31.8 µM,42.3 µM,31.1 µM,15.7 µM,13.1 µM,18.6 µM,19.7 µM,16.7 µM,32.6 µM,17.2 µM,18.9 µM
COc1ccc2[nH]c(Cl)c(/C=C3/C(=O)N(C)c4ccccc43)c2c1,> 100 µM,> 100 µM,> 100 µM,> 100 µM,> 100 µM,> 100 µM,–,–,> 100 µM,> 100 µM,> 100 µM,> 100 µM,42.5 µM,> 100 µM,> 100 µM,> 100 µM,> 100 µM,> 100 µM,–
